In ChEMBL document CHEMBL1201862, “PubChem BioAssay data set” (2004):
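A five-concentration, 48-hour dose response in 96-well plates underlies each endpoint, interpolated linearly between surrounding concentrations. The concentration for 50% growth inhibition is given as GI50.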 The source made the active and inactive calls. Rule as the data show it: active = GI50 up to about 1.1 µM and inactive = higher.

Legend:
Assay in all cases: DTP human tumour cell line panel, 48 h
A498 = system: A498
A549 = system: A549
ACHN = system: ACHN
COLO 205 = system: COLO 205
HCT-15 = system: HCT-15
HL-60 = system: HL-60
HOP-62 = system: HOP-62
LOX IMVI = system: LOX IMVI
Malme-3M = system: Malme-3M
NCI-H226 = system: NCI-H226
OVCAR-4 = system: OVCAR-4
RXF 393 = system: RXF 393
SK-MEL-28 = system: SK-MEL-28
SNB-19 = system: SNB-19
SR = system: SR
U-251 = system: U-251
UO-31 = system: UO-31
M14 = system: M14
SK-MEL-2 = system: SK-MEL-2
TK-10 = system: TK-10

| SMILES | GI50 (A498) | GI50 (A549) | GI50 (ACHN) | GI50 (COLO 205) | GI50 (HCT-15) | GI50 (HL-60) | GI50 (HOP-62) | GI50 (LOX IMVI) | GI50 (Malme-3M) | GI50 (NCI-H226) | GI50 (OVCAR-4) | GI50 (RXF 393) | GI50 (SK-MEL-28) | GI50 (SNB-19) | GI50 (SR) | GI50 (U-251) | GI50 (UO-31) | GI50 (M14) | GI50 (SK-MEL-2) | GI50 (TK-10) |
| --- | --- | --- | --- | --- | --- | --- | --- | --- | --- | --- | --- | --- | --- | --- | --- | --- | --- | --- | --- | --- |
| Cc1ccc2oc(=O)c(C(=O)Nc3nc(C45CC6CC(CC(C6)C4)C5)cs3)cc2c1 | > 100 µM (inactive) | > 100 µM (inactive) | > 100 µM (inactive) | > 100 µM (inactive) | > 100 µM | > 100 µM (inactive) | > 100 µM (inactive) | > 100 µM (inactive) | > 100 µM (inactive) | > 100 µM (inactive) | > 100 µM (inactive) | > 100 µM (inactive) | > 100 µM (inactive) | > 100 µM (inactive) | > 100 µM (inactive) | > 100 µM (inactive) | > 100 µM (inactive) |  |  |  |
| CCCCCN1C(=O)C(Cc2ccccc2)N=C(c2ccc(O)cc2)c2cc(Cl)ccc21 (centres undefined) | > 33.7 µM (inactive) | 13.6 µM (inactive) | 13 µM (inactive) | 2.96 µM (inactive) | 7.67 µM | 2.98 µM (inactive) | 23.7 µM (inactive) | 6.56 µM (inactive) | 7.57 µM (inactive) | 7.43 µM (inactive) | 7.73 µM (inactive) |  | 15.1 µM (inactive) | 14.5 µM (inactive) | 2.97 µM (inactive) | 9.35 µM (inactive) | 10.4 µM (inactive) | 11.2 µM (inactive) | 14.6 µM (inactive) | 12.9 µM (inactive) |
| Cc1nc2c(=O)n(C)c(=O)nc-2n(CCO)c1C | > 100 µM (inactive) | > 100 µM (inactive) | > 100 µM (inactive) | > 100 µM (inactive) | > 100 µM |  | > 100 µM (inactive) | > 100 µM (inactive) | > 100 µM (inactive) | > 100 µM (inactive) | > 100 µM (inactive) | > 100 µM (inactive) | > 100 µM (inactive) | > 100 µM (inactive) | > 100 µM (inactive) | > 100 µM (inactive) | > 100 µM (inactive) | > 100 µM (inactive) | > 100 µM (inactive) | > 100 µM (inactive) |
| CN(C)CCNC(=O)c1ccc2nc3c(nc2c1)C(=O)c1ccccc1-3 | > 100 µM (inactive) | > 100 µM (inactive) | 47.1 µM (inactive) | 34.6 µM (inactive) | 31.4 µM | 19.1 µM (inactive) | 29 µM (inactive) | 29.9 µM (inactive) | 25.2 µM (inactive) |  | 32.8 µM (inactive) | 85.5 µM (inactive) | > 100 µM (inactive) | 77.3 µM (inactive) | 18.1 µM (inactive) | 24.2 µM (inactive) | 40.6 µM (inactive) | > 100 µM (inactive) |  | > 100 µM (inactive) |
| CCCCCC#CCOC(=O)C(=[N+]=[N-])P(=O)(c1ccccc1)c1ccccc1 | > 10 µM (inactive) | > 10 µM (inactive) | > 10 µM (inactive) |  | > 10 µM | > 10 µM (inactive) | > 10 µM (inactive) | > 10 µM (inactive) | > 10 µM (inactive) | > 10 µM (inactive) |  | > 10 µM (inactive) | > 10 µM (inactive) | > 10 µM (inactive) | > 10 µM (inactive) | > 10 µM (inactive) | > 10 µM (inactive) | > 10 µM (inactive) |  | > 10 µM (inactive) |
| O=C(CCc1ccccc1CO)NCCc1ccccc1 | > 100 µM (inactive) | > 100 µM (inactive) | > 100 µM (inactive) | > 100 µM (inactive) | > 100 µM | 72.4 µM (inactive) | > 100 µM (inactive) |  |  | > 100 µM (inactive) | 59.6 µM (inactive) | > 100 µM (inactive) | > 100 µM (inactive) | 15.9 µM (inactive) | > 100 µM (inactive) | > 100 µM (inactive) | 36.5 µM (inactive) | > 100 µM (inactive) | > 100 µM (inactive) | > 100 µM (inactive) |
| C=C1CC2OC(=O)C(=C)C2C(O)C2C(=C)CCC12 (centres undefined) | 0.31 µM (active) | 14.4 µM (inactive) | 9.04 µM (inactive) | 3.78 µM (inactive) |  | 1.89 µM (inactive) |  |  | 15 µM (inactive) | 20.4 µM (inactive) |  | 4.05 µM (inactive) | 7.28 µM (inactive) | 16.2 µM (inactive) | 3.21 µM (inactive) | 16.8 µM (inactive) | 16.1 µM (inactive) |  | 15.7 µM (inactive) | 14.8 µM (inactive) |
| C=C(C)[C@@H]1CC[C@@]2(C)[C@H]1[C@H]1CCC3[C@@]4(C)CC[C@H](O)C(C)(C)[C@@H]4CC[C@@]3(C)[C@]1(C)C[C@@H]2O (some centres undefined) [CALENDULADIOL] | > 100 µM (inactive) | 11.1 µM (inactive) | 21.9 µM (inactive) |  | 18.5 µM | 19.5 µM (inactive) | > 100 µM (inactive) | 46.2 µM (inactive) | 33 µM (inactive) | > 100 µM (inactive) |  | 25.9 µM (inactive) | > 100 µM (inactive) | 54.7 µM (inactive) | 28.4 µM (inactive) | 25.3 µM (inactive) |  | > 100 µM (inactive) |  | > 100 µM (inactive) |
